# Target: T1, Alpha-fucosidase-like protein (Bacteroides thetaiotaomicron (strain ATCC 29148 / DSM 2079 / JCM 5827 / CCUG 10774 / NCTC 10582 / VPI-5482 / E50), UniProt Q8ABG8)
# T1 sequence (Q8ABG8 whole entry): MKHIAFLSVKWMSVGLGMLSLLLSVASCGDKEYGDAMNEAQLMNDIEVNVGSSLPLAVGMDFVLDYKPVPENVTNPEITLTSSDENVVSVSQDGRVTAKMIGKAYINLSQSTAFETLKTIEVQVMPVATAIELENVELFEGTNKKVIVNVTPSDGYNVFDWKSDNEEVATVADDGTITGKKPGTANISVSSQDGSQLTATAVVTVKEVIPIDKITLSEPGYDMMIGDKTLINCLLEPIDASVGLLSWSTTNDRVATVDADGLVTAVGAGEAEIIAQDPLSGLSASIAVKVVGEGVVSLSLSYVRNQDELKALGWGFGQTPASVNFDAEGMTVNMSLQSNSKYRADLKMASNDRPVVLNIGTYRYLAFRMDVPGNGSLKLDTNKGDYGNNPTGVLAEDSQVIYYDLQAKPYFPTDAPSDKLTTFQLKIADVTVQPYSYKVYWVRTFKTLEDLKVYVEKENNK
# Assay: Enzyme Assay
# Settings: 37 °C
# Description: The kinetic studies involving a spectrophotometric product were conducted by monitoring the change in UV/visible absorbance with a Cintra 10 spectrophotometer.
SMILES,Kd (pH 6),Kd (pH 6.5),Kd (pH 8.5)
C[C@@H]1NC[C@@H](O)[C@H](O)[C@@H]1O,14.8 nM,27 nM,372 nM
"CC1NC(CNC(=O)c2cccc3c2C(=O)c2ccccc2-3)C(O)C(O)C1O (stereo not given) [Fucosidase Inhibitor, 4]",46.6 nM,,157 nM
